Laboratory results published in US20260337208A1, “HETEROCYCLIC DERIVATIVES AS JANUS KINASE INHIBITORS” (CHIESI FARMACEUTICI S.P.A., priority 2022, published 2026).

Legend:
JAK1 = JAK1 (Homo sapiens, UniProt P23458); test: Biochemical potency on JAK1, TR-FRET (LANCE Ultra kinase assay); details: ATP corresponding to Km; cell-free; read-out: JAK1 inhibitory activity (pIC50) (converted)
Experimental: (§1) The objective of this study was to assess the capability of compounds to inhibit all 4 JAK isoforms activity in a cell-free environment. Assay for JAK 1, JAK 2, JAK 3 and TYK2 were performed by Time-resolved fluorescence resonance energy transfer (TR-FRET) technology. It consists in the interaction of two labelled binding partners detected by the energy transfer from an excited donor to an acceptor dye and measurement of light emission by the acceptor dye. LANCE Ultra kinase assay was used. In presence of JAK 1, JAK 2, JAK 3 and TYK2 kinases and ATP (corresponding to Km), the ULight peptide substrate (LANCE Ulight-JAK-1 (Tyr1023) Peptide, Perkin Elmer, TRF0121) is phosphorylated. It is then captured by Eu-anti-phospho-substrate antibody (LANCE Eu-W1024 Anti-phosphotyrosine (PT66), Perkin Elmer, AD0069), which bring the Eu-chelate donor and ULight acceptor dyes into close proximity. Upon excitation at 320 nm, the Eu-chelate transfers its energy to the ULight dye, resulting in a fluorescent light emission at 665 nm.
(§2) Serial dilutions of compounds in pure DMSO are prepared from 10 mM DMSO stock solutions. Compounds were tested in 384-well plate for 11 consecutive 5-fold dilutions starting from 20 μM highest concentration (20 μM-[…]). 200 nL of compound were transferred from mother plate to test plate by using Mosquito (TTP labtech). Assay was performed in 384-well Perkin Elmer test plate in 20 μL assay volume (kinase reaction) and 40 μL total volume (stopping reagent and antibody detection reagents). In 10 μL of substrate solution (peptide+ATP) 30/50/20/10 nM of peptide and 20/0.7/0.2/12 μM of ATP were added for JAK 1, JAK 2, JAK 3 and TYK2 respectively. 10 μL of enzyme solution was added to kinase reaction at these concentrations: 0.15/0.083/0.025/0.144 ng/μL of JAK 1, JAK 2, JAK 3 and TYK2 respectively. After shaking and 1.5 h of incubation at r.t., 20 μL of Stop (10 μL EDTA) and Detection mixture (10 μL Europium-anti-phospho antibody, final: 0.5 nM) were added. Reading was performed after 1 h of incubation on a En Vision 2104 reader (Perkin Elmer).
(§3) Calculation of IC50 data, curves and QC analysis was performed by using Excel tool and GraphPadPrism software, v9. Briefly, individual concentration-effect curves are generated by plotting the logarithm of the tested concentration of tested compounds (X) vs. corresponding percent inhibition values (Y) using least squares (ordinary) fit. Best fit IC50 values are calculated using Log (inhibitor) vs. normalized response—Variable slope equation, where Y=100/(1+10^((LogIC50−X)*HillSlope)). QC criteria parameters (Z′, S:B, R2, HillSlope) were checked for every IC50 curve. Calculation of IC50 data, curves and QC analysis were made using Excel tools and GraphPadPrism software. QC criteria parameters: Z′≥0.5, Hill Slope range 0.5 to 5, S:B>2.

JAK2 = JAK2 (Homo sapiens, UniProt O60674); test: Biochemical potency on JAK2, TR-FRET (LANCE Ultra kinase assay); details: ATP corresponding to Km; cell-free; read-out: JAK2 inhibitory activity (pIC50) (converted)
Chain of JAK2 (O60674 whole entry): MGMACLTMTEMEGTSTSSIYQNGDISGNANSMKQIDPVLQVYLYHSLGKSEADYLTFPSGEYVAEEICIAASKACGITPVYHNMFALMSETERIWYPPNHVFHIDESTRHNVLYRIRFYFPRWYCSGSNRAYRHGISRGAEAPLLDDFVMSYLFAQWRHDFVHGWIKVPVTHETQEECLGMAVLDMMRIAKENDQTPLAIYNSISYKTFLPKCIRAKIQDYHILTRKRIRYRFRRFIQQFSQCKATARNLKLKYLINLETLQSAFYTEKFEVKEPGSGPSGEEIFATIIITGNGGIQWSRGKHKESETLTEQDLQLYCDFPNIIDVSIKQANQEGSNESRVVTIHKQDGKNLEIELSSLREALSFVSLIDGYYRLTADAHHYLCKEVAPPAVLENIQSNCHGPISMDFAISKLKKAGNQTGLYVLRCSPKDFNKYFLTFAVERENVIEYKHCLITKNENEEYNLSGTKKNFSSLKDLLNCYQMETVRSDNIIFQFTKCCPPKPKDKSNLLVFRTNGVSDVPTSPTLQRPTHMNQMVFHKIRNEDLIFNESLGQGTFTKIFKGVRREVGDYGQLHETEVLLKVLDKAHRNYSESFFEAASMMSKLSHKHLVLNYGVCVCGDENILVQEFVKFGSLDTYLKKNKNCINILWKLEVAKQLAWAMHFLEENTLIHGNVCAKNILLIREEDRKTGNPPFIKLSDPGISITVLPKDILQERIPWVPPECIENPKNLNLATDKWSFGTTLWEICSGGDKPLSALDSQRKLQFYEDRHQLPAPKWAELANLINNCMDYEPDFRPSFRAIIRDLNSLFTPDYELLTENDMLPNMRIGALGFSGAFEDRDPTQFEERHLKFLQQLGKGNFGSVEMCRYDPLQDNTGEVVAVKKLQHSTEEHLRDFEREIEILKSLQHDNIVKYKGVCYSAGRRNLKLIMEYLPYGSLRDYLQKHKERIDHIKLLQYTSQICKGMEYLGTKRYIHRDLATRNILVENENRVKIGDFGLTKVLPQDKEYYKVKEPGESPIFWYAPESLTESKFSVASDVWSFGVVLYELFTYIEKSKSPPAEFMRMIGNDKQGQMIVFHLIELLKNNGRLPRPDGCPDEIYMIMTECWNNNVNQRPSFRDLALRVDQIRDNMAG
Experimental: as §1, §2, §3

JAK3 = biological target: T1, JAK3 (Homo sapiens, UniProt P52333); test: Biochemical potency on JAK3, TR-FRET (LANCE Ultra kinase assay); details: ATP corresponding to Km; cell-free; read-out: JAK3 inhibitory activity (pIC50) (converted)
T1 sequence (P52333 1-1124): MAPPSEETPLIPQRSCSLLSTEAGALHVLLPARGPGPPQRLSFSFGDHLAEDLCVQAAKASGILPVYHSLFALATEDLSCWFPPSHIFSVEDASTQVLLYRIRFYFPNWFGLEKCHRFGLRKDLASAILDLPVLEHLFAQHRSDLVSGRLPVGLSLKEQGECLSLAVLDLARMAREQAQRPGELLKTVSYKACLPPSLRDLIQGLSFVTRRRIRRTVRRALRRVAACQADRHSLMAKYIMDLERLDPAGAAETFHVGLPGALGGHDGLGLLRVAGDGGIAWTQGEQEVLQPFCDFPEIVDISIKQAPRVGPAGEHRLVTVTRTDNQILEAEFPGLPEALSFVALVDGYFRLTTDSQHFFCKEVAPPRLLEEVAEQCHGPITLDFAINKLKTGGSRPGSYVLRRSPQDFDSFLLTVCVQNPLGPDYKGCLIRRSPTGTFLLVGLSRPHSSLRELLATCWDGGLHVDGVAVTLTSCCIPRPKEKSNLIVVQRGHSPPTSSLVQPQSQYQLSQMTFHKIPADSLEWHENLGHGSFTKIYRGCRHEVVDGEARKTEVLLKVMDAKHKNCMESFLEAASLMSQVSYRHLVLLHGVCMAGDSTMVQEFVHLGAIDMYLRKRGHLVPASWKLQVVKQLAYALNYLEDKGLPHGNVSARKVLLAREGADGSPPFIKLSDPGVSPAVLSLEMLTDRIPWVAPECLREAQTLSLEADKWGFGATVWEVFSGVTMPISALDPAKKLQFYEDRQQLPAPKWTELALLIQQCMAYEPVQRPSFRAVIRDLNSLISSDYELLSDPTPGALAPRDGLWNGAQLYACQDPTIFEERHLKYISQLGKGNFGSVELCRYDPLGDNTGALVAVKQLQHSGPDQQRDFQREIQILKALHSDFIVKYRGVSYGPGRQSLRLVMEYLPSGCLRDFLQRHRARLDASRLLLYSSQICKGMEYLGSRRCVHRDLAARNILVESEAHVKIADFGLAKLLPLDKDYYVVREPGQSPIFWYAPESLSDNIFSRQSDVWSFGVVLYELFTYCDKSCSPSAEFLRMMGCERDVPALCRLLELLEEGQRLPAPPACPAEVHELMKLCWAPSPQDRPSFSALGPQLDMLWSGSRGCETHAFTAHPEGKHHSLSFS
Experimental: as §1, §2, §3

TYK2 = TYK2 (Homo sapiens, UniProt P29597); test: Biochemical potency on Tyk2, TR-FRET (LANCE Ultra kinase assay); details: ATP corresponding to Km; cell-free; read-out: TYK2 inhibitory activity (pIC50) (converted)
Chain of TYK2 (P29597 whole entry): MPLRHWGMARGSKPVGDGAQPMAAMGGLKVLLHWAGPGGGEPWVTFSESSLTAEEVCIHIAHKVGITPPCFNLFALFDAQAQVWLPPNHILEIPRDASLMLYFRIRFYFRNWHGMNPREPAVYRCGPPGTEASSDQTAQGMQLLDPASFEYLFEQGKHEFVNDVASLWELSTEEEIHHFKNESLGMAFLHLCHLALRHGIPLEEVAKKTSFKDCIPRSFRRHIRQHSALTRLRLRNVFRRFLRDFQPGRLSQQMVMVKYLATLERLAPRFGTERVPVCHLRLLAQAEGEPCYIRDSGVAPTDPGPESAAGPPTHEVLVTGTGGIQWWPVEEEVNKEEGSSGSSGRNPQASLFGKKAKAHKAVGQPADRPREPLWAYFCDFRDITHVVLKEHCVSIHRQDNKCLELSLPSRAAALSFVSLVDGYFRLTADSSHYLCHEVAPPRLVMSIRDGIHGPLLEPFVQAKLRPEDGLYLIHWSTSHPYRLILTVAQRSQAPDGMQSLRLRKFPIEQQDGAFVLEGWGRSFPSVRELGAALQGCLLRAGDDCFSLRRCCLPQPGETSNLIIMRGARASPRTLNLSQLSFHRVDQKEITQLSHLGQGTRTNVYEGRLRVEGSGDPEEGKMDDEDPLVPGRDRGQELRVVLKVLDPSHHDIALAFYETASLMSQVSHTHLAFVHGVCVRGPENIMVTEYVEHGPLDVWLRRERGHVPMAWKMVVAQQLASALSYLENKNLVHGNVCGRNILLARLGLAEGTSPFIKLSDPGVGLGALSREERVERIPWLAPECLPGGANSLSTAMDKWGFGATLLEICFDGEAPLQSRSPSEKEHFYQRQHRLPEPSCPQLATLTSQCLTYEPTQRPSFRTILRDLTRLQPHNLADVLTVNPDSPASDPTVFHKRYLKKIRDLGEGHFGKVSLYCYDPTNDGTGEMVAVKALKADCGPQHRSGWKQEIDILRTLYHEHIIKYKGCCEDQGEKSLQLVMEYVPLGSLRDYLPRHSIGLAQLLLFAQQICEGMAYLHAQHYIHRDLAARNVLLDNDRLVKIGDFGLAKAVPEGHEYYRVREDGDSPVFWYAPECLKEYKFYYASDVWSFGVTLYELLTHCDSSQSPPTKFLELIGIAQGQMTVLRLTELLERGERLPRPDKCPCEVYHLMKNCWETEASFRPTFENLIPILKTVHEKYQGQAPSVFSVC
Experimental: as §1, §2, §3

[1] = system: pSTAT6 in BEAS-2B human cell line; test: Inhibition of IL-13 induced pSTAT6 in BEAS; assay type: cell-based; details: for IC50: Homo sapiens, BEAS-2B, 0.5 h, IL-13 trigger, 30 min, parent compound; for Fold difference parent vs predicted acid metabolite: ratio=IC50 predicted acid metabolite/IC50 ester
Experimental: BEAS-2B human cell line was seeded (100.000 cells/well) and incubated for 48 h at 37° C., 5% CO2, 95% humidity. Compounds were added and incubated 30 min followed by IL-13 as trigger. After 30 min incubation, cells were lysed and pSTAT6 determined by Fastscan phospho-stat6 (Tyr641) sandwich ELISA kit (cell signaling). Inhibitors were tested at 11 consecutive 5-fold dilutions starting from 10 μM (10 μM-[…]) in duplicate. Calculation of IC50 data, curves and QC analysis were made using Excel tools and GraphPadPrism software. QC criteria parameters: Z′≥0.35, Hill Slope range 0.5 to 5, S:B>2.

Chain of JAK1 (P23458 whole entry, canonical isoform): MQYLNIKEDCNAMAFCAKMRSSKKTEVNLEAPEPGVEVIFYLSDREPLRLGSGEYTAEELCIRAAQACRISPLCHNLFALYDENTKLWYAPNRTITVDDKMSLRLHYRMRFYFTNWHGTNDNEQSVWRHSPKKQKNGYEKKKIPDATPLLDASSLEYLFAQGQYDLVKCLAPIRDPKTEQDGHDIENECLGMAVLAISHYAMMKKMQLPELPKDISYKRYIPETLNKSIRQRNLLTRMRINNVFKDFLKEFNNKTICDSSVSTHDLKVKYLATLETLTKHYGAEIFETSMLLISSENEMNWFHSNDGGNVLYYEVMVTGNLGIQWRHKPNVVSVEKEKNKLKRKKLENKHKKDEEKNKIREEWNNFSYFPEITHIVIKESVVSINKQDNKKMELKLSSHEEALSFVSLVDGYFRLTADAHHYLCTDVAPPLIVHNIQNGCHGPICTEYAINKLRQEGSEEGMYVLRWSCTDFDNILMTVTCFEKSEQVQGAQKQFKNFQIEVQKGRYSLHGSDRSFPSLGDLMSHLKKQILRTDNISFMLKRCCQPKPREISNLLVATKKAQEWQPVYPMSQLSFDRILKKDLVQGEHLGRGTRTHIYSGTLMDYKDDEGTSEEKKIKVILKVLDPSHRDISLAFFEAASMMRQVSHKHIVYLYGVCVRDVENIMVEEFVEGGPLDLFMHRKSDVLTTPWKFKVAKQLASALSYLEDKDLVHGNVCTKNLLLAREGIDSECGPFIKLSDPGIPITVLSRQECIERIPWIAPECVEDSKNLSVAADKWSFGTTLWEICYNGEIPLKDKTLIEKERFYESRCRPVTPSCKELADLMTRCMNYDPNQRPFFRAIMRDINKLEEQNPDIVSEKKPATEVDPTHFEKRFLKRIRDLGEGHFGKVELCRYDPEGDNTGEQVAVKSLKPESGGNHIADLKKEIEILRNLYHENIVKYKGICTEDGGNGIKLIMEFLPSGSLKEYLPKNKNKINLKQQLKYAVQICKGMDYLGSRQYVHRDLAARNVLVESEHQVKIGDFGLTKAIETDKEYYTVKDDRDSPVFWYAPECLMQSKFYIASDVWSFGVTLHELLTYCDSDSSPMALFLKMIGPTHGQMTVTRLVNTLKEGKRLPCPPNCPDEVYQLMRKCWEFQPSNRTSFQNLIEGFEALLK

Compound | IC50 (JAK1) | IC50 (JAK2) | IC50 (JAK3) | IC50 (TYK2) | IC50 [1] | Fold difference parent vs predicted acid metabolite [1]
COc1cc2c(cc1-n1nc(C(=O)NCCN3CCC(C(=O)OCC4CN(C)CCO4)CC3)c3cnc(-c4cnn5cccnc45)cc31)OCCN2 (stereo not shown) [Example 19, (4-methylmorpholin-2-yl)methyl 1-(2-(1-(6-methoxy-3,4-dihydro-2H-benzo[b][1,4]oxazin-7-yl)-6-(pyrazolo[1,5-a]pyrimidin-3-yl)-1H-pyrazolo[4,3-c]pyridine-3-carboxamido)ethyl)piperidine-4-carboxylate] | ≤ 5.01 nM | ≤ 5.01 nM | ≤ 5.01 nM | 5.01 to 50.1 nM | ≤ 5.01 nM | kkkk (ratio≥200)
CCOC(=O)COC(=O)Nc1nn(-c2cc3c(cc2OC)NCCO3)c2cc(-c3cnn4cccnc34)ncc12 [Example 39, ethyl 2-(((1-(6-methoxy-3,4-dihydro-2H-benzo[b][1,4]oxazin-7-yl)-6-(pyrazolo[1,5-a]pyrimidin-3-yl)-1H-pyrazolo[4,3-c]pyridin-3-yl)carbamoyl)oxy)acetate] | ≤ 5.01 nM | ≤ 5.01 nM | ≤ 5.01 nM | 5.01 to 50.1 nM | 5.01 to 50.1 nM | kkkk (ratio≥200)
CCOC(=O)C1CCCN(CCNC(=O)c2nn(-c3cc4c(cc3OC)NCCO4)c3cc(-c4cnn5cccnc45)ncc23)C1 (stereo not shown) [Example 27, ethyl 1-(2-(1-(6-methoxy-3,4-dihydro-2H-benzo[b][1,4]oxazin-7-yl)-6-(pyrazolo[1,5-a]pyrimidin-3-yl)-1H-pyrazolo[4,3-c]pyridine-3-carboxamido)ethyl)piperidine-3-carboxylate] | ≤ 5.01 nM | ≤ 5.01 nM | ≤ 5.01 nM | 5.01 to 50.1 nM | 5.01 to 50.1 nM | –
COc1cc2c(cc1-n1nc(C(=O)NCCN3CCC(C(=O)OCC(C)(C)N(C)C)CC3)c3cnc(-c4cnn5cccnc45)cc31)OCCN2 [Example 20, 2-(dimethylamino)-2-methylpropyl 1-(2-(1-(6-methoxy-3,4-dihydro-2H-benzo[b][1,4]oxazin-7-yl)-6-(pyrazolo[1,5-a]pyrimidin-3-yl)-1H-pyrazolo[4,3-c]pyridine-3-carboxamido)ethyl)piperidine-4-carboxylate] | ≤ 5.01 nM | ≤ 5.01 nM | ≤ 5.01 nM | 5.01 to 50.1 nM | 5.01 to 50.1 nM | kkk (200>ratio≥100)
COC(=O)Cc1cccc(CN(C)CCNC(=O)c2nn(-c3cc4c(cc3OC)NCCO4)c3cc(-c4cnn5cccnc45)ncc23)c1 [Example 37, methyl 2-(3-(((2-(1-(6-methoxy-3,4-dihydro-2H-benzo[b][1,4]oxazin-7-yl)-6-(pyrazolo[1,5-a]pyrimidin-3-yl)-1H-pyrazolo[4,3-c]pyridine-3-carboxamido)ethyl)(methyl)amino)methyl)phenyl)acetate] | 5.01 to 50.1 nM | ≤ 5.01 nM | ≤ 5.01 nM | 5.01 to 50.1 nM | 5.01 to 50.1 nM | –

The next lines start with results.

IC50 (JAK1) | IC50 (JAK2) | IC50 (JAK3) | IC50 (TYK2) | Compound | IC50 [1] | Fold difference parent vs predicted acid metabolite [1]
≤ 5.01 nM | ≤ 5.01 nM | ≤ 5.01 nM | 5.01 to 50.1 nM | COc1cc2c(cc1-n1nc(C(=O)NCCN3CCC(CC(=O)OCC(C)(C)O)CC3)c3cnc(-c4cnn5cccnc45)cc31)OCCN2 [Example 48, 2-hydroxy-2-methylpropyl 2-(1-(2-(1-(6-methoxy-3,4-dihydro-2H-benzo[b][1,4]oxazin-7-yl)-6-(pyrazolo[1,5-a]pyrimidin-3-yl)-1H-pyrazolo[4,3-c]pyridine-3-carboxamido)ethyl)piperidin-4-yl)acetate] | 5.01 to 50.1 nM | kkkk (ratio≥200)
≤ 5.01 nM | ≤ 5.01 nM | ≤ 5.01 nM | 5.01 to 50.1 nM | COc1cc2c(cc1-n1nc(C(=O)OCC3CN(C)CCO3)c3cnc(-c4cnn5cccnc45)cc31)OCCN2 (stereo not shown) [Example 46, (4-methylmorpholin-2-yl)methyl 1-(6-methoxy-3,4-dihydro-2H-benzo[b][1,4]oxazin-7-yl)-6-(pyrazolo[1,5-a]pyrimidin-3-yl)-1H-pyrazolo[4,3-c]pyridine-3-carboxylate] | 5.01 to 50.1 nM | kkk (200>ratio≥100)
≤ 5.01 nM | ≤ 5.01 nM | ≤ 5.01 nM | 5.01 to 50.1 nM | COc1cc2c(cc1-n1nc(C(=O)NCCN3CCC(C(=O)OCCCC#N)CC3)c3cnc(-c4cnn5cccnc45)cc31)OCCN2 [Example 54, 3-cyanopropyl 1-(2-(1-(6-methoxy-3,4-dihydro-2H-benzo[b][1,4]oxazin-7-yl)-6-(pyrazolo[1,5-a]pyrimidin-3-yl)-1H-pyrazolo[4,3-c]pyridine-3-carboxamido)ethyl)piperidine-4-carboxylate] | ≤ 5.01 nM | kkkk (ratio≥200)
≤ 5.01 nM | ≤ 5.01 nM | ≤ 5.01 nM | 5.01 to 50.1 nM | COc1cc2c(cc1-n1nc(C(=O)NCCN3CC[C@@H](C(=O)O[C@@H]4CCN(CCF)C4)C3)c3cnc(-c4cnn5cccnc45)cc31)OCCN2 [Example 55, (R)-1-(2-fluoroethyl)pyrrolidin-3-yl (R)-1-(2-(1-(6-methoxy-3,4-dihydro-2H-benzo[b][1,4]oxazin-7-yl)-6-(pyrazolo[1,5-a]pyrimidin-3-yl)-1H-pyrazolo[4,3-c]pyridine-3-carboxamido)ethyl)pyrrolidine-3-carboxylate] | 5.01 to 50.1 nM | kk (100>ratio≥10)
